From article PMC8800111 (The Journal of Biological Chemistry, 2021)

Assays:
Type in all cases: cell-based
[1] = biological target: proteins of U3A human fibrosarcoma cells (4462 proteins detected) (Homo sapiens, UniProt Q9H4A3); settings: protein WNK1, U3A cells
[2] = biological target: proteins of U3A human fibrosarcoma cells (4462 proteins detected) (Homo sapiens, UniProt O76003); settings: protein GLRX3; U3A cells
[3] = biological target: proteins of U3A human fibrosarcoma cells (4462 proteins detected) (Homo sapiens, UniProt P35790); settings: protein CHKA; U3A, 10 μM, 2 h
[4] = biological target: proteins of U3A human fibrosarcoma cells (4462 proteins detected) (Homo sapiens, UniProt P18206); settings: protein VCL; soluble abundance after heat, U3A cells
[5] = biological target: proteins of U3A human fibrosarcoma cells (4462 proteins detected) (Homo sapiens, UniProt Q12765); settings: protein SCRN1, U3A cells
[6] = biological target: proteins of U3A human fibrosarcoma cells (4462 proteins detected) (Homo sapiens, UniProt Q9NQZ2); settings: protein UTP3; soluble abundance after heat, U3A cells
[7] = biological target: proteins of U3A human fibrosarcoma cells (4462 proteins detected) (Homo sapiens, UniProt Q9NRN7); settings: protein AASDHPPT; U3A cells
[8] = biological target: proteins of U3A human fibrosarcoma cells (4462 proteins detected) (Homo sapiens, UniProt Q9HD33); settings: protein MRPL47; U3A cells
[9] = biological target: proteins of U3A human fibrosarcoma cells (4462 proteins detected) (Homo sapiens, UniProt P34896); settings: protein SHMT1, U3A cells
[10] = biological target: proteins of U3A human fibrosarcoma cells (4462 proteins detected) (Homo sapiens, UniProt P50281); settings: protein MMP14; U3A cells
[11] = biological target: proteins of U3A human fibrosarcoma cells (4462 proteins detected) (Homo sapiens, UniProt P48556); settings: protein PSMD8; U3A cells
[12] = biological target: proteins of U3A human fibrosarcoma cells (4462 proteins detected) (Homo sapiens, UniProt Q13541); settings: protein EIF4EBP1, U3A cells
[13] = biological target: proteins of U3A human fibrosarcoma cells (4462 proteins detected) (Homo sapiens, UniProt Q6P3W7); settings: protein SCYL2, U3A cells
[14] = biological target: proteins of U3A human fibrosarcoma cells (4462 proteins detected) (Homo sapiens, UniProt Q9HC44); settings: protein GPBP1L1; soluble abundance after heat, U3A cells
[15] = biological target: proteins of U3A human fibrosarcoma cells (4462 proteins detected) (Homo sapiens, UniProt Q9NVR0); settings: protein KLHL11; U3A cells
[16] = biological target: proteins of U3A human fibrosarcoma cells (4462 proteins detected) (Homo sapiens, UniProt Q8N6T3); settings: protein ARFGAP1; U3A, 10 μM, 2 h
[17] = biological target: proteins of U3A human fibrosarcoma cells (4462 proteins detected) (Homo sapiens, UniProt Q9NT62); settings: protein ATG3; soluble abundance after heat, U3A cells
[18] = biological target: proteins of U3A human fibrosarcoma cells (4462 proteins detected) (Homo sapiens, UniProt O00399); settings: protein DCTN6, U3A cells
[19] = biological target: proteins of U3A human fibrosarcoma cells (4462 proteins detected) (Homo sapiens, UniProt Q16775); settings: protein HAGH, U3A cells
[20] = biological target: proteins of U3A human fibrosarcoma cells (4462 proteins detected) (Homo sapiens, UniProt P07948); settings: protein LYN; U3A cells
[21] = biological target: proteins of U3A human fibrosarcoma cells (4462 proteins detected) (Homo sapiens, UniProt Q9NSA3); settings: protein CTNNBIP1; U3A, 10 μM, 2 h
[22] = biological target: proteins of U3A human fibrosarcoma cells (4462 proteins detected) (Homo sapiens, UniProt Q13162); settings: protein PRDX4; U3A cells
[23] = biological target: proteins of U3A human fibrosarcoma cells (4462 proteins detected) (Homo sapiens, UniProt P23469); settings: protein PTPRE; soluble abundance after heat, U3A cells
[24] = biological target: proteins of U3A human fibrosarcoma cells (4462 proteins detected) (Homo sapiens, UniProt Q7Z3E5); settings: protein ARMC9; U3A, 10 μM, 2 h
[25] = biological target: proteins of U3A human fibrosarcoma cells (4462 proteins detected) (Homo sapiens, UniProt Q8WW12); settings: protein PCNP, U3A cells
[26] = biological target: proteins of U3A human fibrosarcoma cells (4462 proteins detected) (Homo sapiens, UniProt P49916); settings: protein LIG3; U3A cells
[27] = biological target: proteins of U3A human fibrosarcoma cells (4462 proteins detected) (Homo sapiens, UniProt Q15366); settings: protein PCBP2; U3A cells
[28] = biological target: proteins of U3A human fibrosarcoma cells (4462 proteins detected) (Homo sapiens, UniProt Q8TD30); settings: protein GPT2; U3A cells
[29] = biological target: proteins of U3A human fibrosarcoma cells (4462 proteins detected) (Homo sapiens, UniProt P49247); settings: protein RPIA, U3A cells
[30] = biological target: proteins of U3A human fibrosarcoma cells (4462 proteins detected) (Homo sapiens, UniProt Q8NB16); settings: protein MLKL; U3A, 10 μM, 2 h

Sequence of proteins of U3A human fibrosarcoma cells (4462 proteins detected) (Homo sapiens, UniProt Q13162) (Q13162 38-271): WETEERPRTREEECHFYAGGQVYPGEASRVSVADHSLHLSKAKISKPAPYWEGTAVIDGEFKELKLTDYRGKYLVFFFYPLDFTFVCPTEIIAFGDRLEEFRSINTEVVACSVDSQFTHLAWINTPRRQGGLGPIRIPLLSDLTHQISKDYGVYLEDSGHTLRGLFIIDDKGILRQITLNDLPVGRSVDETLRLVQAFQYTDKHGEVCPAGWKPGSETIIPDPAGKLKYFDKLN
Sequence of proteins of U3A human fibrosarcoma cells (4462 proteins detected) (Homo sapiens, UniProt P49247) (P49247 whole entry): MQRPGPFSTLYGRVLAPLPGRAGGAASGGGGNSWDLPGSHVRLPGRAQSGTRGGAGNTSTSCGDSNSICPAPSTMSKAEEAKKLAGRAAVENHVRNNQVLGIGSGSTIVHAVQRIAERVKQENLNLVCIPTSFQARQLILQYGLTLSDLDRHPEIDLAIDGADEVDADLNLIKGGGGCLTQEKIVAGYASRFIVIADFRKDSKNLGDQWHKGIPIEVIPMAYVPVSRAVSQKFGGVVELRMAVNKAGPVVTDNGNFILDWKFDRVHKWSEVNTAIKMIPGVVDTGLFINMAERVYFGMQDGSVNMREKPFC
Sequence of proteins of U3A human fibrosarcoma cells (4462 proteins detected) (Homo sapiens, UniProt Q9NSA3) (Q9NSA3 whole entry): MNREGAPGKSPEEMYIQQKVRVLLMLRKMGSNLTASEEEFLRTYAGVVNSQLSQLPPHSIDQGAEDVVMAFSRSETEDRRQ
Sequence of proteins of U3A human fibrosarcoma cells (4462 proteins detected) (Homo sapiens, UniProt Q9NRN7) (Q9NRN7 whole entry): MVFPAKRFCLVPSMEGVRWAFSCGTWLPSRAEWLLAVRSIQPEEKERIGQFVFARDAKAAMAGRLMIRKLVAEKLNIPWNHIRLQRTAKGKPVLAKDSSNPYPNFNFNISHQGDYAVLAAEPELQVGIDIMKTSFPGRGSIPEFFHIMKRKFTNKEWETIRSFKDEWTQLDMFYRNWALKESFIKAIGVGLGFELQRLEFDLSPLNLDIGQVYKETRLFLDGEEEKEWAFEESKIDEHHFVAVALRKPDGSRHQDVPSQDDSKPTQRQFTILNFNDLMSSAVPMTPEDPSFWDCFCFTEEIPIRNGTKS
Sequence of proteins of U3A human fibrosarcoma cells (4462 proteins detected) (Homo sapiens, UniProt Q12765) (Q12765 whole entry): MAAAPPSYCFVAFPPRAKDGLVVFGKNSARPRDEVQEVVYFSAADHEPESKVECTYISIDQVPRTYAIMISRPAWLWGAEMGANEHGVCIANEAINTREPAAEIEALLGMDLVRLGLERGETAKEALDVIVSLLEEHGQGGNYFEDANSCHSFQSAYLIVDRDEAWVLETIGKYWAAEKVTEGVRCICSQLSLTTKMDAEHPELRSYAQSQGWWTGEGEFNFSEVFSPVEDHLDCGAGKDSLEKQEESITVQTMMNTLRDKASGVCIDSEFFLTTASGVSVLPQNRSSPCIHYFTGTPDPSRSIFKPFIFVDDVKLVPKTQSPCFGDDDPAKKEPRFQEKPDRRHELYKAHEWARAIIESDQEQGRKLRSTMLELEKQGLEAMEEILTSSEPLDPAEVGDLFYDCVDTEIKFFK
Sequence of proteins of U3A human fibrosarcoma cells (4462 proteins detected) (Homo sapiens, UniProt Q7Z3E5) (Q7Z3E5 whole entry): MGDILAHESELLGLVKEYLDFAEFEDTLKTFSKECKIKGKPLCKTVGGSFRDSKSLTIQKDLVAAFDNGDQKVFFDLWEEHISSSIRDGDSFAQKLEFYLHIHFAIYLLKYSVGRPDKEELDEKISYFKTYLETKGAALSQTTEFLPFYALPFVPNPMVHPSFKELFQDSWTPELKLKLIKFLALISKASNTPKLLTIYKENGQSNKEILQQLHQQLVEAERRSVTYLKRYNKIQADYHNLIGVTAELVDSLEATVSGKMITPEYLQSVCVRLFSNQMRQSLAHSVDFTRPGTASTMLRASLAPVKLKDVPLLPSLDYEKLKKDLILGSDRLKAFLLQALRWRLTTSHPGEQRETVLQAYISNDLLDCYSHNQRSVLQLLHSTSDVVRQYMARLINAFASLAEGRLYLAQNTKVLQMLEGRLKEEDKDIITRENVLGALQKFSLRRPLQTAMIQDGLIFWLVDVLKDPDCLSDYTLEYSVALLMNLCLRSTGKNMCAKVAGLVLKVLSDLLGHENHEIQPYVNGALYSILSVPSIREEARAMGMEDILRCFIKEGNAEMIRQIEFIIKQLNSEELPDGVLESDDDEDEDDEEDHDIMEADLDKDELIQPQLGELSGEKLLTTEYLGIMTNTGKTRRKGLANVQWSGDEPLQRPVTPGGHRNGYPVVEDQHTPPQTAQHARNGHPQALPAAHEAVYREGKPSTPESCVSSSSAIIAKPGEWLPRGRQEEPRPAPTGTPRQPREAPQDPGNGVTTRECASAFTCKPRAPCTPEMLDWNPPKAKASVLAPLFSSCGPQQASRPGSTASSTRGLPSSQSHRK
Sequence of proteins of U3A human fibrosarcoma cells (4462 proteins detected) (Homo sapiens, UniProt Q9H4A3) (Q9H4A3 whole entry): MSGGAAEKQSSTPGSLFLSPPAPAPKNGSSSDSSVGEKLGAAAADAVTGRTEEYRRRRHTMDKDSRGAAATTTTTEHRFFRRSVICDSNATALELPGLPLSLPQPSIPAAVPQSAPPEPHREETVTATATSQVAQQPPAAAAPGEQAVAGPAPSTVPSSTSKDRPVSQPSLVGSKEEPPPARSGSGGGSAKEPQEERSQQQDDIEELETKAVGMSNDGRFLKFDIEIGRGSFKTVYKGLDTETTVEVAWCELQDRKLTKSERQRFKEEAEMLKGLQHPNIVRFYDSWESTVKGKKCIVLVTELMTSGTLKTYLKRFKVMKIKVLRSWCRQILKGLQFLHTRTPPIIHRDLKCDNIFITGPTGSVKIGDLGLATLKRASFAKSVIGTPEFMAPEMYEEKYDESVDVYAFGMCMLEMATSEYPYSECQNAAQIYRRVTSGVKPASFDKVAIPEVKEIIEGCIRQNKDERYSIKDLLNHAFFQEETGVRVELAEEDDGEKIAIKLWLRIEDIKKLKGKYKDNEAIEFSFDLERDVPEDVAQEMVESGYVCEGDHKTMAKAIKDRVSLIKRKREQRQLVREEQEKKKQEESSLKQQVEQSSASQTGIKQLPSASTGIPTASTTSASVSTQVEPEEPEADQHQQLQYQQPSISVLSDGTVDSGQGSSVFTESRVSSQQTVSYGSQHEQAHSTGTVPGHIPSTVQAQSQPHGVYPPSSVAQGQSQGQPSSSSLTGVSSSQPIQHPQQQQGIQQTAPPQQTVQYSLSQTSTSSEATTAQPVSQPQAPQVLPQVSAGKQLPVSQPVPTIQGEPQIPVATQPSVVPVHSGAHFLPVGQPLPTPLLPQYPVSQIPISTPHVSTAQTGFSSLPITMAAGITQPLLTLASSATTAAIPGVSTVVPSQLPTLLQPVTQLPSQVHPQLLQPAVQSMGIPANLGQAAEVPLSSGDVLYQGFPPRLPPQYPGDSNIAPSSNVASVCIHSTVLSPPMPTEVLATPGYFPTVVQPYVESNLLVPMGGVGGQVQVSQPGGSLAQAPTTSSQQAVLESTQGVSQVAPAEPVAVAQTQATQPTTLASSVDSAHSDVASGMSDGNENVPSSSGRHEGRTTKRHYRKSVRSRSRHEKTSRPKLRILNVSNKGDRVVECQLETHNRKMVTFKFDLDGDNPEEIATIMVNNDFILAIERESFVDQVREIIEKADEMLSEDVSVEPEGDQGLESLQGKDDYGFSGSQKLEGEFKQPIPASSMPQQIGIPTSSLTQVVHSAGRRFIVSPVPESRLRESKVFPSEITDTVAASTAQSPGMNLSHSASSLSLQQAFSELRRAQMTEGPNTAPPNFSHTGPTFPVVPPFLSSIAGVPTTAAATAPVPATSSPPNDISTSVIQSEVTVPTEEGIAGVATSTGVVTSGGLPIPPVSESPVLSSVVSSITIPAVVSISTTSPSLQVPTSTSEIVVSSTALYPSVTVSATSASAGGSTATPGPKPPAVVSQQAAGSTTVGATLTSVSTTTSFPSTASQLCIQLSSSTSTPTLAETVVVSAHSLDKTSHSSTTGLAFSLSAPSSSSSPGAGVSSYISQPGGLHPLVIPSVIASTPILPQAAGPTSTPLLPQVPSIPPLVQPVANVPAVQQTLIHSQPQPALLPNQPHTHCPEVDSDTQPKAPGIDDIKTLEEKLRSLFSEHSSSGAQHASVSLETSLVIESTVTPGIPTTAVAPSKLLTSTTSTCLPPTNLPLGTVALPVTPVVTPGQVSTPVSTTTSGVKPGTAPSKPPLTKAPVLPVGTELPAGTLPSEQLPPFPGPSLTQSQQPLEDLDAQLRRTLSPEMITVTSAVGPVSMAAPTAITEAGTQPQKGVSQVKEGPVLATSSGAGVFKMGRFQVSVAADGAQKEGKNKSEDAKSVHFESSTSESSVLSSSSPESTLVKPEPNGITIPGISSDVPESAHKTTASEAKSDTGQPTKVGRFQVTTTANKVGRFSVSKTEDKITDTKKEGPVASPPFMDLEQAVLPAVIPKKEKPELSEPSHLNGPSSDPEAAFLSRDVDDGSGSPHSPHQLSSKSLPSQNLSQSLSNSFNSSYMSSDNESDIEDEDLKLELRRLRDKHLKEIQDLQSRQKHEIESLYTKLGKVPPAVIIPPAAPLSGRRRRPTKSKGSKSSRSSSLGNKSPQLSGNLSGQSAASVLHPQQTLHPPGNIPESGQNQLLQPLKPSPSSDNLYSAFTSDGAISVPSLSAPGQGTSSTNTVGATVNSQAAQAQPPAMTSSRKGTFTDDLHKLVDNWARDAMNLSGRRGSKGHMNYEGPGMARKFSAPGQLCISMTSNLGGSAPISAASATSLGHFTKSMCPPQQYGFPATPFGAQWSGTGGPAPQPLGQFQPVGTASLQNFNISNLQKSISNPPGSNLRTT
Sequence of proteins of U3A human fibrosarcoma cells (4462 proteins detected) (Homo sapiens, UniProt Q13541) (Q13541 whole entry): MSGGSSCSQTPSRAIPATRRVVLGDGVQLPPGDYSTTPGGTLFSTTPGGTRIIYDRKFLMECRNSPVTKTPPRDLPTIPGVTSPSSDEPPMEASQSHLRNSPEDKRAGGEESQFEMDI
Sequence of proteins of U3A human fibrosarcoma cells (4462 proteins detected) (Homo sapiens, UniProt P48556) (P48556 whole entry): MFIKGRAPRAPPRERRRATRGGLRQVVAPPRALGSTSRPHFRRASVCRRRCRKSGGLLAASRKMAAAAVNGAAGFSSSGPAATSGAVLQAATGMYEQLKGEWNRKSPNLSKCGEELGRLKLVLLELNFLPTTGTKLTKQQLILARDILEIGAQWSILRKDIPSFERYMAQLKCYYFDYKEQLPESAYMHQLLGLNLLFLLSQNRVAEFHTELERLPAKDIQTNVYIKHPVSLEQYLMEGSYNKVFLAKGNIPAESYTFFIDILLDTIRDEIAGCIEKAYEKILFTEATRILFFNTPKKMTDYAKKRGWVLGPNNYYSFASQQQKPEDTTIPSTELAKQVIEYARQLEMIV

CCc1nc(N)nc(N)c1-c1ccc(Cl)cc1 [pyrimethamine]
Log2 (PYR/DMSO) [1]: -0.04 | Log2 (PYR/DMSO) [2]: 0.16 | Log2 (PYR/DMSO), CHKA [3]: 0.24 | Log2 (PYR/DMSO) [4]: 0.15 | Log2 (PYR/DMSO) [5]: -0.04 | Log2 (PYR/DMSO) [6]: 0.15 | Log2 (PYR/DMSO) [7]: 0.17 | Log2 (PYR/DMSO) [8]: 0.17 | Log2 (PYR/DMSO) [9]: -0.05 | Log2 (PYR/DMSO) [10]: 0.19 | Log2 (PYR/DMSO) [11]: 0.17 | Log2 (PYR/DMSO) [12]: -0.04 | Log2 (PYR/DMSO) [13]: -0.04 | Log2 (PYR/DMSO) [14]: 0.14 | Log2 (PYR/DMSO) [15]: 0.18 | Log2 (PYR/DMSO), ARFGAP1 [16]: -0.14 | Log2 (PYR/DMSO) [17]: 0.13 | Log2 (PYR/DMSO) [18]: -0.04 | Log2 (PYR/DMSO) [19]: -0.04 | Log2 (PYR/DMSO) [20]: 0.16 | Log2 (PYR/DMSO), CTNNBIP1 [21]: -0.15 | Log2 (PYR/DMSO) [22]: 0.16 | Log2 (PYR/DMSO) [23]: 0.13 | Log2 (PYR/DMSO), ARMC9 [24]: -0.15 | Log2 (PYR/DMSO) [25]: -0.04 | Log2 (PYR/DMSO) [26]: 0.16 | Log2 (PYR/DMSO) [27]: 0.18 | Log2 (PYR/DMSO) [28]: 0.16 | Log2 (PYR/DMSO) [29]: -0.05 | Log2 (PYR/DMSO), MLKL [30]: 0.27
